# Patent US8569344B2, “N-piperidinyl acetamide derivatives as calcium channel blockers” (Zalicus Pharmaceuticals Ltd., priority 2008, dated 2013)
# Like-named read-outs stand apart in the source and are kept apart here.
# Key:
# Format in all cases: cell-based
# hERG K+ channel = hERG K+ channel (Homo sapiens, UniProt Q12809); test: hERG K+ Channel Block
# [1] = target: T1, human α1H T-type channels (Homo sapiens, UniProt O95180); test: T-type calcium channel block, whole cell patch clamp in HEK cells (α1H); settings: HEK cells, patch clamp, mainly non-inactivated protocol; values above 10 μM shown as 10 μM; read-out: T-type Calcium Channel Block α1H IC50
# T1 construct: expressed in transfected cells; host or cells: HEK 293
# [2] = target: T2, human α1G T-type channels (Homo sapiens, UniProt O43497); test: T-type calcium channel block, whole cell patch clamp in HEK cells (α1G); settings: HEK cells, patch clamp, mainly non-inactivated protocol; values above 10 μM shown as 10 μM, below 0.30 μM shown as 0.30 μM; read-out: T-type Calcium Channel Block α1G IC50
# T2 construct: expressed in transfected cells; host or cells: HEK 293
# T2 sequence (O43497 whole entry): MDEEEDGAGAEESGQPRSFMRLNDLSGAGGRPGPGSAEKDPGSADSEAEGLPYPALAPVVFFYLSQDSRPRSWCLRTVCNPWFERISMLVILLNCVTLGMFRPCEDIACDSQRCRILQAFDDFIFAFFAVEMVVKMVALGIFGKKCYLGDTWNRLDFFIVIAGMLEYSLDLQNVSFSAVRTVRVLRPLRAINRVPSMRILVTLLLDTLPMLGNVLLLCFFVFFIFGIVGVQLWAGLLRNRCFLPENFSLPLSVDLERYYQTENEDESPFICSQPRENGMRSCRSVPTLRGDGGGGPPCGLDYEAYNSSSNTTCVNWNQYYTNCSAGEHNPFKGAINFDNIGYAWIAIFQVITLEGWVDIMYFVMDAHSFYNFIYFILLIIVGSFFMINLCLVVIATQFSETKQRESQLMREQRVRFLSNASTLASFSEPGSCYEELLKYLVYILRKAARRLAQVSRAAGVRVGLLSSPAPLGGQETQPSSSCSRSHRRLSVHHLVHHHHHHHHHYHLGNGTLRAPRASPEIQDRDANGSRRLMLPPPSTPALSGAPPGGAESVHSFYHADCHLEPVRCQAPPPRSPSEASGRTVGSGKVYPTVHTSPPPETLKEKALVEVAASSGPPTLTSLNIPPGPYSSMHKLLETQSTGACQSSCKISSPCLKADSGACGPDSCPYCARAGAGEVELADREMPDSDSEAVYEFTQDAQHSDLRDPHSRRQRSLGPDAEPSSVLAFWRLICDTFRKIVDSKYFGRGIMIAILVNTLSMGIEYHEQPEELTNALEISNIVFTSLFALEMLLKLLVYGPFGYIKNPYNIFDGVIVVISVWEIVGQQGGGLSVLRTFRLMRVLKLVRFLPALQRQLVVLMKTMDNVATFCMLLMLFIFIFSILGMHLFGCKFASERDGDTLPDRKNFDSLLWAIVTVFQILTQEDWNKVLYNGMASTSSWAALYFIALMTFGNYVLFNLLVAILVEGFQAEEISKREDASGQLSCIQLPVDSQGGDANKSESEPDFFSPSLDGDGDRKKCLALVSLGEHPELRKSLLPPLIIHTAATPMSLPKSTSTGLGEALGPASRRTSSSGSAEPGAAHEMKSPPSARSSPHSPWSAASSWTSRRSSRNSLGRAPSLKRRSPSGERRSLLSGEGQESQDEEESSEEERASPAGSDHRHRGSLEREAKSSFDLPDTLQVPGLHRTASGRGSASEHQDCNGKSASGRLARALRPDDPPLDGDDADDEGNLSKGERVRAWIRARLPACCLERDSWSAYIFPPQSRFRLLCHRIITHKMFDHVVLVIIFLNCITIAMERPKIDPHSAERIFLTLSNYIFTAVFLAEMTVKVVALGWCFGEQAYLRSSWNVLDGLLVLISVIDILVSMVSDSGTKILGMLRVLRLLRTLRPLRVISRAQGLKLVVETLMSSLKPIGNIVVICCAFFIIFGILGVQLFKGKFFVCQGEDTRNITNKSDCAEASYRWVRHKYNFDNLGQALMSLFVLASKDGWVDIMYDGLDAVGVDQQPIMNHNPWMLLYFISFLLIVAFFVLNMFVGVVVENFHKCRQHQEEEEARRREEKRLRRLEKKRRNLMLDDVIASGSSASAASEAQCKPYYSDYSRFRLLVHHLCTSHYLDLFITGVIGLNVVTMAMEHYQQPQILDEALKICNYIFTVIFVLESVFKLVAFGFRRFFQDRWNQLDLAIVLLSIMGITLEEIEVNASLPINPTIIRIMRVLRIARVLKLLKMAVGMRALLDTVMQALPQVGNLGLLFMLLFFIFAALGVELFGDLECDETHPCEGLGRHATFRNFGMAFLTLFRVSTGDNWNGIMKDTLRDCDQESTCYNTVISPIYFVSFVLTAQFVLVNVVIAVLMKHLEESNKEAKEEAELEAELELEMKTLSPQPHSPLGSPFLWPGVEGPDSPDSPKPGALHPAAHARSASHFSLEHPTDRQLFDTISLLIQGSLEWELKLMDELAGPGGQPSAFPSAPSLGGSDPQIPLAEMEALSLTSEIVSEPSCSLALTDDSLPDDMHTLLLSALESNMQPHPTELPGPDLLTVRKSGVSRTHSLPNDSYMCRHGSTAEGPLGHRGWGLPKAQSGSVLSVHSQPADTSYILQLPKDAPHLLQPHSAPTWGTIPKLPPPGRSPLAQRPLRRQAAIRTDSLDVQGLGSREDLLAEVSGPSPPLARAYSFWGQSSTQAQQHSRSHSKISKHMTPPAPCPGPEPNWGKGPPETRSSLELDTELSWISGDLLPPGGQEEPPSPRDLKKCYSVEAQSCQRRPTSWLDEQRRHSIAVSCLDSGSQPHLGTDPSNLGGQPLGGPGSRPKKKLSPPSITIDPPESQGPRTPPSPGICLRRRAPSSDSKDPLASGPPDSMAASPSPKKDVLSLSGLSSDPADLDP
# Sequence of hERG K+ channel (Q12809 whole entry): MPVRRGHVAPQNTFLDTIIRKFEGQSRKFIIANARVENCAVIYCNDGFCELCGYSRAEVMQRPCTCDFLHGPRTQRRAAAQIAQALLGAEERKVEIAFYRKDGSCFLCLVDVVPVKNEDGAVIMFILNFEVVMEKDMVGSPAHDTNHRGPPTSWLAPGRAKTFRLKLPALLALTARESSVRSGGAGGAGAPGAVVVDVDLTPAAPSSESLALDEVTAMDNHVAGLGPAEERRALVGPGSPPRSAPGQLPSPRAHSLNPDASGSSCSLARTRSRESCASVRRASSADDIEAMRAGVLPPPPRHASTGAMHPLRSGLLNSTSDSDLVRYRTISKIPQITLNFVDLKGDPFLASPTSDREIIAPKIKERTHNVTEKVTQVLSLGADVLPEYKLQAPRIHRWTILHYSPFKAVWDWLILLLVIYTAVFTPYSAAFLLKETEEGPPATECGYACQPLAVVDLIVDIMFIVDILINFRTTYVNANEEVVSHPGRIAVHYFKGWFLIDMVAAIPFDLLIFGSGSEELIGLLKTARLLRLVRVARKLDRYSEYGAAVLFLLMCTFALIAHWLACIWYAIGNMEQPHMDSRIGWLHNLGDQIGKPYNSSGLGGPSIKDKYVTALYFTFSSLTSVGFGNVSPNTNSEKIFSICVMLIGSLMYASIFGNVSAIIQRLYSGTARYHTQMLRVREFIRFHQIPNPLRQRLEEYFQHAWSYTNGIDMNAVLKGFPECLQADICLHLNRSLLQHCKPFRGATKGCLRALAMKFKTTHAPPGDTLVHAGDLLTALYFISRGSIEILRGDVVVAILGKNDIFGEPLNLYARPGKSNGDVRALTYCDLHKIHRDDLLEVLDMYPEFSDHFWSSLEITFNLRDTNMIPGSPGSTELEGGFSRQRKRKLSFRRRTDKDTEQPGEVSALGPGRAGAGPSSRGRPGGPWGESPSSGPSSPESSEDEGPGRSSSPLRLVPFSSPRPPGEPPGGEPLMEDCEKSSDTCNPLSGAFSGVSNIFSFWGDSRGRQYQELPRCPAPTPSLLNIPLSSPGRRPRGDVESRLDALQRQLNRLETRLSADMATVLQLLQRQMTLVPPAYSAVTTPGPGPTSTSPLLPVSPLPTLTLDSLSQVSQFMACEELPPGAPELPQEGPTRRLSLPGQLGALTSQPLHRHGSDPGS
SMILES,IC50 (hERG K+ channel) [nM],IC50 [1] [nM],IC50 [2] [nM],IC50 (hERG K+ channel; human) [nM]
"CC(C)(C(=O)NCCN1CCC(CNC(=O)c2cc(F)cc(Cl)c2)CC1)C(F)(F)F [Compound 495, 3-chloro-5-fluoro-N-((1-(2-(3,3,3-trifluoro-2,2-dimethylpropanamido)ethyl)piperidin-4-yl)methyl)benzamide]",4100,90,< 300,
"CN(C(=O)CN1CCC(CNC(=O)c2cc(Cl)cc(Cl)c2)CC1)C(C)(C)C [Compound 552, N-((1-(2-(tert-butyl(methyl)amino)-2-oxoethyl)piperidin-4-yl)methyl)-3,5-dichlorobenzamide]",1800,60,< 300,
"COc1cc(F)cc(C(=O)NCC2CCN(CCNS(=O)(=O)C(C)(C)C)CC2)c1 [Compound 577, N-((1-(2-(1,1-dimethylethylsulfonamido)ethyl)piperidin-4-yl)methyl)-3-fluoro-5-methoxybenzamide]",,450,< 300,≥ 17000
"COc1cc(F)cc(C(=O)NCC2CCN(CC(=O)NC3(C)CCC3)CC2)c1 [Compound 477, 3-fluoro-5-methoxy-N-((1-(2-(1-methylcyclobutylamino)-2-oxoethyl)piperidin-4-yl)methyl) benzamide]",,60,< 300,≥ 16600
"Cc1cc(C)cc(C(=O)NCC2CCN(CC(=O)NC(C)(C)C)CC2)c1 [Compound 362, N-((1-(2-(tert-butylamino)-2-oxoethyl)piperidin-4-yl)methyl)-3,5-dimethylbenzamide]",,170,< 300,≥ 8300
"CC(C)(C)[S+]([O-])NCCN1CCC(CNC(=O)c2cc(F)cc(C(F)(F)F)c2)CC1 (stereo not drawn) [Compound 537, N-((1-(2-(1,1-dimethylethylsulfinamido)ethyl)piperidin-4-yl)methyl)-3-fluoro-5-(trifluoromethyl)benzamide]",,360,2470,≥ 17000
"NC1(CN2CCC(CC(=O)Nc3cc(C(F)(F)F)cc(C(F)(F)F)c3)CC2)CCCC1 [Compound 159, 2-(1-((1-aminocyclopentyl)methyl)piperidin-4-yl)-N-(3,5-bis(trifluoromethyl)phenyl)acetamide]",1300,3360,310,
"CC1(NC(=O)CN2CCC(CNC(=O)c3cc(F)cc(Cl)c3)CC2)CCC1 [Compound 482, 3-chloro-5-fluoro-N-((1-(2-(1-methylcyclobutylamino)-2-oxoethyl)piperidin-4-yl)methyl) benzamide]",7900,80,< 300,
"COc1cc(F)cc(C(=O)NCC2CCN(CC(=O)NC(C)(C)C)CC2)c1 [Compound 366, N-((1-(2-(tert-butylamino)-2-oxoethyl)piperidin-4-yl)methyl)-3-fluoro-5-methoybenzamide]",,120,< 300,≥ 8300
"CC(C)(NC(=O)CN1CCC(CNC(=O)c2cc(F)cc(Cl)c2)CC1)C(F)(F)F [Compound 461, 3-chloro-5-fluoro-N-((1-(2-oxo-2-(1,1,1-trifluoro-2-methylpropan-2-ylamino)ethyl)piperidin-4-yl)methyl)benzamide]",7400,20,< 300,
"COc1cc(Cl)cc(C(=O)NCC2CCN(CCNC(=O)C3(C(F)(F)F)CC3)CC2)c1 [Compound 590, 3-chloro-5-methoxy-N-((1-(2-(1-(trifluoromethyl)cyclopropanecarbox-amido)ethyl)piperidin-4-yl)methyl) benzamide]",2200,70,< 300,
"COc1cc(F)cc(C(=O)NCC2CCN(CCNC(=O)C(C)(C)C(F)(F)F)CC2)c1 [Compound 490, 3-fluoro-5-methoxy-N-((1-(2-(3,3,3-trifluoro-2,2-dimethylpropanamido)ethyl)piperidin-4-yl)methyl)benzamide]",10900,150,< 300,
"CC(C)(C)S(=O)(=O)NCCN1CCC(CNC(=O)c2cccc(OC(F)(F)F)c2)CC1 [Compound 574, N-((1-(2-(1,1-dimetylethylsulfonamido)ethyl)piperidin-4-yl)methyl)-3-(trifluoromethoxy)benzamide]",4100,200,< 300,
"COc1cc(OC)cc(C(=O)NCC2CCN(CC(=O)NC(C)(C)C(F)(F)F)CC2)c1 [Compound 457, 3,5-dimethoxy-N-((1-(2-oxo-2-(1,1,1-trifluoro-2-methylpropan-2-ylamino)ethyl)piperidin-4-yl)methyl)benzamide]",,50,< 300,≥ 16600
"O=C(NCC1CCN(CCNC(=O)C2(C(F)(F)F)CC2)CC1)c1cc(F)cc(C(F)(F)F)c1 [Compound 343, 3-fluoro-5-(trifluoromethyl)-N-((1-(2-(1-(trifluoromethyl)cyclopropanecarbox-amido)ethyl)piperidin-4-yl)methyl) benzamide]",6200,130,330,
"O=C(CC1CCN(CC2(NS(=O)(=O)C3CC3)CCCC2)CC1)Nc1cc(C(F)(F)F)cc(C(F)(F)F)c1 [Compound 179, N-(3,5-bis(trifluoromethyl)phenyl)-2-(1-((1-(cyclopropanesulfonamido)cyclopentyl)methyl)piperidin-4-yl) acetamide]",330,80,2,
"CC(C)(C)NC(=O)CN1CCC(CNC(=O)c2cc(F)cc(C(F)(F)F)c2)CC1 [Compound 376, N-((1-(2-(tert-butylamino)-2-oxoethyl)piperidin-4-yl)methyl)-3-fluoro-5-(trifluoromethyl)benzamide]",11000,160,< 300,
"O=C(CN1CCC(CNC(=O)c2cc(F)cc(Cl)c2)CC1)NC1CCCC1 [Compound 531, 3-chloro-N-((1-(2-(cyclopentylamino)-2-oxoethyl)piperidin-4-yl)methyl)-5-fluorobenzamide]",2400,80,< 300,
"CN(C(=O)CN1CCC(CNC(=O)c2cccc(Cl)c2)CC1)C(C)(C)C [Compound 543, N-((1-(2-(tert-butyl(methyl)amino)-2-oxoethyl)piperidin-4-yl)methyl)-3-chlorobenzamide]",5200,410,580,
"CC(C)(C)C(O)CN1CCC(CC(=O)Nc2cc(C(F)(F)F)cc(C(F)(F)F)c2)CC1 (stereo not drawn) [Compound 153, N-(3,5-bis(trifluoromethyl)phenyl)-2-(1-(2-hydroxy-3,3-dimethylbutyl)piperidin-4-yl)acetamide]",2800,70,< 300,
"CC(C)(C)NC(=O)CN1CCC(CNC(=O)c2cccc(C(F)(F)F)c2)CC1 [Compound 371, N-((1-(2-(tert-butylamino)-2-oxoethyl)piperidin-4-yl)methyl)-3-(trifluoromethyl)benzamide]",14700,140,< 300,
"CC(C)(NC(=O)CN1CCC(CNC(=O)c2cccc(Cl)c2)CC1)C(F)(F)F [Compound 460, 3-chloro-N-((1-(2-oxo-2-(1,1,1-trifluoro-2-methylpropan-2-ylamino)ethyl)piperidin-4-yl)methyl)benzamide]",6900,30,< 300,
